According to ChEMBL document CHEMBL5465560, “Selectivity Literature for EUbOPEN Chemogenomic Library” (2024):
Blank lines part the entries; values can stand above or below the compound they belong to.

Columns and labels:
[1] = tested on: Tyrosine-protein kinase ABL1 (Homo sapiens), P00519 [E255K]; assay: (§1) Selectivity interaction (KinomeScan (DiscoverX)) EUB0000618a ABL1; conditions: at 10 µM
[2] = tested on: Tyrosine-protein kinase ABL1 (Homo sapiens), P00519 [H396P]; assay: as §1; conditions: at 10 µM
[3] = tested on: Tyrosine-protein kinase ABL1 (Homo sapiens), P00519 [M351T]; assay: as §1; conditions: at 10 µM
[4] = tested on: Tyrosine-protein kinase ABL1 (Homo sapiens), P00519 [T315I]; assay: as §1; conditions: at 10 µM
[5] = tested on: Tyrosine-protein kinase ABL1 (Homo sapiens), P00519 [Y253F]; assay: as §1; conditions: at 10 µM
[6] = target: Tyrosine-protein kinase ABL1 (Homo sapiens, UniProt P00519); assay: as §1; conditions: at 10 µM
[7] = target: Serine/threonine-protein kinase 16 (Homo sapiens, UniProt O75716); assay: Selectivity interaction (KinomeScan (DiscoverX)) EUB0000045b STK16
[8] = target: T1, Cytoplasmic tyrosine-protein kinase BMX (Homo sapiens) (UniProt P51813); assay: Selectivity interaction (KinomeScan (DiscoverX)) EUB0000595a BMX; conditions: at 10 µM
T1 sequence (whole entry): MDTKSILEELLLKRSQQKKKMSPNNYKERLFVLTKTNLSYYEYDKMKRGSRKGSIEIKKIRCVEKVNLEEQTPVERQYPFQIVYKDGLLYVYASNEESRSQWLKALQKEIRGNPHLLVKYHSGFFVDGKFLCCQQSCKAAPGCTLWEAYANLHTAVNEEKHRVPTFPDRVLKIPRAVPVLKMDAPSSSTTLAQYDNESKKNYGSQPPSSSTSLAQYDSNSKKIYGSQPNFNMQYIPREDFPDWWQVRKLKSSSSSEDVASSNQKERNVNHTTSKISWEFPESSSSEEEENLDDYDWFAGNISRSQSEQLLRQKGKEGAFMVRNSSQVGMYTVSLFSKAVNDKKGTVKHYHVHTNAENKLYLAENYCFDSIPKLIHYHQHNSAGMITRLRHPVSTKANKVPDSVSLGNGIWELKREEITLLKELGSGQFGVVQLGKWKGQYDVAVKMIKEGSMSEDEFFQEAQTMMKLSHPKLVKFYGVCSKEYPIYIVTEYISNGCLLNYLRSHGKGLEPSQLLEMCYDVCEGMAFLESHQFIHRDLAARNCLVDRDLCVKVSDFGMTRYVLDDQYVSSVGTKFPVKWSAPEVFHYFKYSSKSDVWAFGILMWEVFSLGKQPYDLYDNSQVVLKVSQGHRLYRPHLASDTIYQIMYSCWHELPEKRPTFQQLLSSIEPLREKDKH

[9] = target: T2, MAP/microtubule affinity-regulating kinase 4 (Homo sapiens) (UniProt Q96L34); assay: Selectivity interaction (ActivX KiNativ screen (kinase selectivity in THP-1 cell lysates)) EUB0000639a MARK4; format: subcellular; conditions: lysate, at 5 µM
T2 sequence (whole entry): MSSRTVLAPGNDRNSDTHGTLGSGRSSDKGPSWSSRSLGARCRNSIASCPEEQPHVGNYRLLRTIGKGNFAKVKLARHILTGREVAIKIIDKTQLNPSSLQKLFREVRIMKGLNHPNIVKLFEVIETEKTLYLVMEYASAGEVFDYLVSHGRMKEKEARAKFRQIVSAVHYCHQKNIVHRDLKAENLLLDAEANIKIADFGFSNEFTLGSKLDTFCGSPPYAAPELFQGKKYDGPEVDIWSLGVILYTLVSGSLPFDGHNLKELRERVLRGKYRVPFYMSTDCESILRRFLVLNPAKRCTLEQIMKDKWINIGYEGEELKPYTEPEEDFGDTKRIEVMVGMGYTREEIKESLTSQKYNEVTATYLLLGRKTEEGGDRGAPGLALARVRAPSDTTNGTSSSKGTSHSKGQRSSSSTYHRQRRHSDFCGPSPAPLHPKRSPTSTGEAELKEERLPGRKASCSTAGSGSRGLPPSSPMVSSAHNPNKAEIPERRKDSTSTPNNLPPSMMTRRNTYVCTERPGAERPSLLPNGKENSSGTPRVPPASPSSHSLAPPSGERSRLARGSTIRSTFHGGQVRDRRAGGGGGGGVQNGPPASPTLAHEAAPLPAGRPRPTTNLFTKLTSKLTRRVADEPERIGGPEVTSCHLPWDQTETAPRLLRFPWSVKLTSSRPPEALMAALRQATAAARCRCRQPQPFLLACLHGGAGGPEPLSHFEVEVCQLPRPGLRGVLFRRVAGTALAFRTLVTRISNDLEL

[10] = target: Calcium/calmodulin-dependent protein kinase type 1B (Homo sapiens) (UniProt Q6P2M8); assay: Selectivity interaction (KinomeScan (DiscoverX)) EUB0001049a PNCK; conditions: at 1 µM
[11] = target: RAC-gamma serine/threonine-protein kinase (Homo sapiens, UniProt Q9Y243); assay: Selectivity interaction (KinomeScan (DiscoverX)) EUB0000666a AKT3; conditions: at 10 µM
[12] = target: 1-phosphatidylinositol 3-phosphate 5-kinase (Homo sapiens) (UniProt Q9Y2I7); assay: Selectivity interaction (KinomeScan (DiscoverX)) EUB0001550a PIKFYVE; conditions: at 1 µM
[13] = target: T3, Dual serine/threonine and tyrosine protein kinase (Homo sapiens) (UniProt Q6XUX3); assay: Selectivity interaction (KinomeScan (DiscoverX)) EUB0000695a DSTYK; conditions: at 100 nM
T3 sequence (whole entry): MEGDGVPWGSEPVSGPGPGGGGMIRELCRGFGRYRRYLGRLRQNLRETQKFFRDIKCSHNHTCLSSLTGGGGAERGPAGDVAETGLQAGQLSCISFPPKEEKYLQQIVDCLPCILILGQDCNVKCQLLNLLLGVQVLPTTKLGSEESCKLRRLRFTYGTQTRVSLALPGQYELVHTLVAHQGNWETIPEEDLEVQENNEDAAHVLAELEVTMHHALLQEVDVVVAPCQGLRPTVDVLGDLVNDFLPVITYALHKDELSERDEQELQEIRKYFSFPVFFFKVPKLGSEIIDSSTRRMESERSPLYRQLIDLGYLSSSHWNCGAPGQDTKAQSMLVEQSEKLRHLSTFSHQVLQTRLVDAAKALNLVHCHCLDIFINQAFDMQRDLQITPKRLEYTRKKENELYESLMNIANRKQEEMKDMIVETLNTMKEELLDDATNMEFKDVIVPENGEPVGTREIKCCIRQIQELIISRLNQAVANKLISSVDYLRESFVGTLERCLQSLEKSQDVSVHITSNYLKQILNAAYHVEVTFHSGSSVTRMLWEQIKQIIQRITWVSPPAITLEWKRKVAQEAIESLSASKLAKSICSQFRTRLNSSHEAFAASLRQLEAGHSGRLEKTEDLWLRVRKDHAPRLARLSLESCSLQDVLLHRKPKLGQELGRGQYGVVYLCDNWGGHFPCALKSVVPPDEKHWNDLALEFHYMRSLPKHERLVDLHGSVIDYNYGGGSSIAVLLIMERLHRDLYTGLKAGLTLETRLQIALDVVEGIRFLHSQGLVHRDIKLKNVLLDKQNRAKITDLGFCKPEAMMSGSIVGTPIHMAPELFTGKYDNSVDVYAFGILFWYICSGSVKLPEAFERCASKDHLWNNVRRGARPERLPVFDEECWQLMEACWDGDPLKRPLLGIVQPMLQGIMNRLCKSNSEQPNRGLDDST

Sequence of Serine/threonine-protein kinase 16 (O75716 whole entry): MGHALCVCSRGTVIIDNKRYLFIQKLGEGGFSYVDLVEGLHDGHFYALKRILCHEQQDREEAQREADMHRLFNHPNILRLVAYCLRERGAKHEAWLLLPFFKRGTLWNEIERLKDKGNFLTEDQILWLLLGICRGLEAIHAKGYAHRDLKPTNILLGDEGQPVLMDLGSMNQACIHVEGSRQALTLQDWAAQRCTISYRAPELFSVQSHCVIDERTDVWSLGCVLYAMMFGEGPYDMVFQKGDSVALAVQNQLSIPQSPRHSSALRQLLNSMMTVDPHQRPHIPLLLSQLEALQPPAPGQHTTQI
Sequence of 1-phosphatidylinositol 3-phosphate 5-kinase (Homo sapiens) (Q9Y2I7 whole entry): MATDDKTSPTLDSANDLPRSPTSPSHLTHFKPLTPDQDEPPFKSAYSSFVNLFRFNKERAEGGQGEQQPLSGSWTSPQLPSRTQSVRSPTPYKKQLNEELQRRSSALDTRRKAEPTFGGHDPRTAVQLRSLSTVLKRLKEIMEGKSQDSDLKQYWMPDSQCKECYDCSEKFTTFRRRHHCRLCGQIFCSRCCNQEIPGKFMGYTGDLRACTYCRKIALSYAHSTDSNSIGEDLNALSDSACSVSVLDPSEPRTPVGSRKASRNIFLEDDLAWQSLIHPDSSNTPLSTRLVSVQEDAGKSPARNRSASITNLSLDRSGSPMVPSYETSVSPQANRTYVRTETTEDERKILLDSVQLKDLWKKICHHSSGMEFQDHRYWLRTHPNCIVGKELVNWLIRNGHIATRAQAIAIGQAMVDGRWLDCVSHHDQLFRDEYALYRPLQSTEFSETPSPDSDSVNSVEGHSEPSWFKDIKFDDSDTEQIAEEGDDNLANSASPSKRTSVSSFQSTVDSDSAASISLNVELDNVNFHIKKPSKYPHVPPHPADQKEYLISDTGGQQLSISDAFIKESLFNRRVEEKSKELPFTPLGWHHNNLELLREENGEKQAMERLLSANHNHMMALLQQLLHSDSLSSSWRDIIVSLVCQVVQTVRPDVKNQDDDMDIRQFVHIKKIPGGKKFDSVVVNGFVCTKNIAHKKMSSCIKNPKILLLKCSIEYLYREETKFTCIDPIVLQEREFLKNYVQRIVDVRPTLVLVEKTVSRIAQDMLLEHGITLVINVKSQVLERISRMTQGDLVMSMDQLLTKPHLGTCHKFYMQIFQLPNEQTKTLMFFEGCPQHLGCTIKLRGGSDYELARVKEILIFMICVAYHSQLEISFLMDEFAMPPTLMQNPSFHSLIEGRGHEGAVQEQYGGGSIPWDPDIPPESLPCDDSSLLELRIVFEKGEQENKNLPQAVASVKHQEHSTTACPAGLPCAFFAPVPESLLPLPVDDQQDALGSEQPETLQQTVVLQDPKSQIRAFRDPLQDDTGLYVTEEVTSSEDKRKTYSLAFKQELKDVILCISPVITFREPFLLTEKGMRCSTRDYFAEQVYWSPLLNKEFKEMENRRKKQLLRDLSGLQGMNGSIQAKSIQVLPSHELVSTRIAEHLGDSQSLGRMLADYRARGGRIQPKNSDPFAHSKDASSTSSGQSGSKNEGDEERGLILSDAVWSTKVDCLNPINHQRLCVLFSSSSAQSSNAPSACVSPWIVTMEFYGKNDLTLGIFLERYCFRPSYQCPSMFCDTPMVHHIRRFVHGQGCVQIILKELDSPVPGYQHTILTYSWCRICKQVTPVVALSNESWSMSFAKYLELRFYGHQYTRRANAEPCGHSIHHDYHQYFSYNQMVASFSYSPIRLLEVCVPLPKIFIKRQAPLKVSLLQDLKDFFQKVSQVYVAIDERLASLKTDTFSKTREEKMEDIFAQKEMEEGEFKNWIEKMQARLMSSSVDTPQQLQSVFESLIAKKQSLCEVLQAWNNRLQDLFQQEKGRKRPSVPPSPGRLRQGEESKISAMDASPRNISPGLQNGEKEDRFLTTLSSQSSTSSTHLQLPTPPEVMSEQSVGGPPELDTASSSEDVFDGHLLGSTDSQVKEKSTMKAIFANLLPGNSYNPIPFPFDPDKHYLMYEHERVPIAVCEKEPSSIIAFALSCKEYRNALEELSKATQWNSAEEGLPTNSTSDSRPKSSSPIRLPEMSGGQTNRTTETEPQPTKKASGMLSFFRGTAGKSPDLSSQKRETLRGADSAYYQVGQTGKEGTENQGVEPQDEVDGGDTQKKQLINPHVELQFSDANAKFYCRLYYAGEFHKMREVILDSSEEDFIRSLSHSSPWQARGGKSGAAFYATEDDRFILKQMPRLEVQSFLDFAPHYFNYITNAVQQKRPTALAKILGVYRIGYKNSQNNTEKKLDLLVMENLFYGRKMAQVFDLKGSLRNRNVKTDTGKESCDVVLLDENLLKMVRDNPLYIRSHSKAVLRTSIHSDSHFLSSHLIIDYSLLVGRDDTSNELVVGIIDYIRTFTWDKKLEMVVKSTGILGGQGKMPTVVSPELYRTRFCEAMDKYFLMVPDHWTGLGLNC
Sequence of Calcium/calmodulin-dependent protein kinase type 1B (Homo sapiens) (Q6P2M8 whole entry): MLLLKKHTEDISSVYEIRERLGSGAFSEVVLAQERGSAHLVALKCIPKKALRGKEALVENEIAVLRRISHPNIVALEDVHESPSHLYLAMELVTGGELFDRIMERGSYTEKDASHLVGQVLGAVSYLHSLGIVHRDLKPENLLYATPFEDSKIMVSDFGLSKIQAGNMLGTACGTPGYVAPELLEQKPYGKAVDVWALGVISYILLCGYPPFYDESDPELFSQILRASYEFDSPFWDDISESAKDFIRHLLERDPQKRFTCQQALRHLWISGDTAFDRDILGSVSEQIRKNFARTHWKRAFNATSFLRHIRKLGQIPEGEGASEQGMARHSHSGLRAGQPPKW
Sequence of RAC-gamma serine/threonine-protein kinase (Q9Y243 whole entry): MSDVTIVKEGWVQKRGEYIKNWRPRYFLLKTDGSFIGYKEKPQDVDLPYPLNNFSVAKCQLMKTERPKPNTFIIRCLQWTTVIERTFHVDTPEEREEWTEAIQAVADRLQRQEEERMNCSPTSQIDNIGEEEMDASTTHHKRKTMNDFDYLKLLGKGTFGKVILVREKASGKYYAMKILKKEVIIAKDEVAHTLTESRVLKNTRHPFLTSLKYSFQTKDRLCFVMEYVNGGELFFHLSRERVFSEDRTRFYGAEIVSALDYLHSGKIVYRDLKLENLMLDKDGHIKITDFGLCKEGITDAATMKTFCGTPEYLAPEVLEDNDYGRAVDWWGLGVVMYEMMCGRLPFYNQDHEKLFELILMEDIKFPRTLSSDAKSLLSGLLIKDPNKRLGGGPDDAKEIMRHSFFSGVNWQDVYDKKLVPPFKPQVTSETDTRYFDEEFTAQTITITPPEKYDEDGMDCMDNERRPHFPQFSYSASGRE

Compound: O[C@H]1CC[C@H](Nc2ncc3nc(Nc4c(F)cc(F)cc4F)n([C@H]4CCOC4)c3n2)CC1
% of control [1]: 31% | % of control [2]: 13% | % of control [3]: 38% | % of control [4]: 100% | % of control [5]: 29% | % of control [6]: 39%

Compound: C=CC(=O)Nc1cc(-n2c(=O)ccc3cnc4ccc(-c5ccc(NS(C)(=O)=O)cc5)cc4c32)ccc1C
% of control ([7]; at 1 µM): 98% | % of control ([7]; at 10 µM): 28%

Compound: COCC(=O)NC/C=C/c1ccc2ncnc(Nc3ccc(Oc4ccc(C)nc4)c(C)c3)c2c1 [CP-724714]
% of control [8]: 73%

% of inhibition [9]: 27.1%
Compound: CC[C@@H]1[C@H](F)C(=O)N[C@@H]1COc1nccc2cc(C(N)=O)c(OC)cc12 [ZIMLOVISERTIB]

Compound: COc1cc(Nc2nc(C)cc(-c3cnn4nc(OC)ccc34)n2)cc(C(F)(F)F)c1
% of control [10]: 100%

Compound: O=C(NOC[C@H](O)CO)c1ccc(F)c(F)c1Nc1ccc(I)cc1F
% of control [11]: 89%

% of control [12]: 0.1%
Compound: CN(C)CC#Cc1ccc2[nH]c3c(c2c1)-c1nc(N)ncc1CCC3

Compound: Cc1cc(F)c(C(=O)Nc2cccc(-c3nncn3C(C)C)n2)cc1-n1cnc(C2CC2)c1
% of control [13]: 79%
